From patent publication US10844015B2, “Pyridine dicarboxamide derivatives as bromodomain inhibitors” (GlaxoSmithKline Intellectual Property (No. 2) Limited, priority 2016, dated 2020)

Experiments:
BRD4 BD2 = target: T1, BRD4 BD2 (Homo sapiens, UniProt O60885, Y97A); test: BRD4 BD2 TR-FRET competition assay; format: binding; settings: single mutant tandem BRD4 protein; for IC50: read-out: pIC50 in the BRD4 BD2 assay (converted)
T1 construct: BRD4 (1-477) (Y97A) and (Y390A); made in house; host or cells: E. coli (pET15b vector)
Method: Time Resolved Fluorescence Resonance Energy Transfer (TR-FRET) Assay
Bromodomain binding was assessed utilising a time resolved fluorescent resonance energy transfer (TR-FRET) competition assay. To enable this approach a known, high affinity, pan-BET interacting small molecule was labelled with Alexa Fluor® 647, which is a far-red-fluorescent dye (Reference Compound X). Reference Compound X acts as a reporter of bromodomain binding and is the acceptor fluorophore component of the TR-FRET pair. Europium chelate, conjugated to an anti-6*His antibody, was utilised as the donor fluorophore in the TR-FRET pair. […] A TR-FRET signal is generated when the donor and acceptor fluorophores are in close proximity, between 20-80 Å, which is enabled in this assay by binding of Reference Compound X to the bromodomain protein.
In order to generate a TR-FRET signal, donor fluorophore is excited by a laser at A337 nm, which subsequently leads to emission at A618 nm. If the acceptor fluorophore is in close proximity then energy transfer can occur, which leads to emission of Alexa Fluor® 647 at A665 nm. In the presence of competitor compound, Reference Compound X can be displaced from binding to the bromodomain. If displacement occurs, the acceptor fluorophore is no longer in proximity to the donor fluorophore, which prevents fluorescent energy transfer and, subsequently, a loss of Alexa Fluor® 647 emission at λ665 nm.
(§1) The competition of the compounds of formula (I) with Reference Compound X for binding to the BET family (BRD2, BRD3, BRD4 and BRDT) was assessed using protein truncates spanning both bromodomain 1 (BD1) and bromodomain 2 (BD2). In order to monitor differential binding to either BD1 or BD2, single residue mutations of key tyrosines to alanine were made in the acetyl lysine binding pockets. To validate this approach, a double residue mutant tandem domain protein was produced for each of the BET family members. Utilising a Fluorescence Polarisation approach, binding affinities for each of the single and double mutants for Reference Compound X were determined.
Final purification was completed by Superdex 200 prep grade size exclusion column. Purified protein was stored at −80° C. in 20 mM HEPES pH 7.5 and 100 mM NaCl.
Protocol for Bromodomain BRD2, 3, 4 and T, BD1+BD2 Mutant TR-FRET Competition Assays:
(§2) All assay components were dissolved in an assay buffer composing of 50 mM HEPES pH7.4, 50 mM NaCl, 5% Glycerol, 1 mM DTT and 1 mM CHAPS. […] The solution containing bromodomain and Reference Compound X was added to dose response dilutions of test compound or DMSO vehicle (a maximum of 0.5% DMSO is used in this assay) in Greiner 384 well black low volume microtitre plates and subsequently incubated for 30 minutes at room temperature. An equal volume of 3 nM of anti-6*His Europium chelate was added to all wells, followed by a further 30 minute incubation at room temperature. TR-FRET was detected using a Perkin Elmer Multimode plate reader, by exciting the donor fluorophore at λ337 nm and subsequently, after a delay of 50 μsecs, measuring emission of the donor and acceptor fluorophores at λ615 nm and λ665 nm, respectively. In order to control these assays, 16 replicates each of uninhibited (DMSO vehicle) and inhibited (10*IC50 concentrations of Example 11 of WO 2011/054846A1) TR-FRET assays were included on every microtitre plate.
cA four parameter curve fit of the following form was then applied: y=a+((b−a)/(1+(10^x/10^c)^d) • Where ‘a’ is the minimum, ‘b’ is the Hill slope, ‘c’ is the pIC50 and ‘d’ is the maximum.
(§3) All compounds (Examples) were each tested in the BRD4 BD1 and the BRD4 BD2 TR-FRET assays essentially as described above. Those of skill in the art will recognise that in vitro binding assays and cell-based assays for functional activity are subject to experimental variability. Accordingly, it is to be understood that the pIC50 values given below are exemplary only. pIC50 values are expressed as log10 units.

BRD4 BD2 over BRD4 BD1 = test: Calculation of selectivity for BRD4 BD2 over BRD4 BD1 from the TR-FRET assays; format: binding, Human; settings: for fold selective for BRD4 BD2 over BRD4 BD1: stated from the log unit selectivity; for selectivity for BRD4 BD2 over BRD4 BD1: BRD4 BD2 pIC50 − BRD4 BD1 pIC50, in at least one of the TR-FRET assays
Method: as §1, §2, §3
Calculation of Selectivity for BRD4 BD2 Over BRD4 BD1
Selectivity for BRD4 BD2 over BRD4 BD1 was calculated as follows: Selectivity=BRD4BD2pIC50−BRD4BD1pIC50

[1] = test system: BET family (BRD2, BRD3, BRD4 and BRDT) tandem bromodomain proteins; test: Fluorescence Polarisation binding affinities of single and double mutant tandem BET proteins for Reference Compound X; parameters: species or system Human
Method: as §1, with “determined. […] The affinities of the single mutated bromdomain tandem proteins for Reference Compound X were equi-potent with the corresponding non-mutated BET protein. […] In the TR-FRET competition assay, Reference Compound X is used at a concentration that is equivalent to the Kd for the non-mutated bromodomain, which ensures that no binding at the mutated bromodomain is detected.” for “determined.”
Recombinant Human Bromodomains [(BRD2 (1-473) (Y113A) and (Y386A), BRD3 (1-435) (Y73A) and (Y348A) BRD4 (1-477) (Y97A) and (Y390A) and BRDT (1-397) (Y66A) and (Y309A)] were expressed in E. coli cells (in pET15b vector for BRD2/3/4 and in pET28a vector for BRDT) with a 6-His tag at the N-terminal. The His-tagged Bromodomain pellet was resuspended in 50 mM HEPES (pH7.5), 300 mM NaCl, 10 mM imidazole & 1 μL/mL protease inhibitor cocktail and extracted from the E. coli cells using sonication and purified using a nickel sepharose high performance column, the proteins were washed and then eluted with a linear gradient of 0-500 mM imidazole with buffer 50 mM HEPES (pH7.5), 150 mM NaCl, 500 mM imidazole, over 20 column volumes. Final purification was completed by Superdex 200 prep grade size exclusion column. Purified protein was stored at −80° C. in 20 mM HEPES pH 7.5 and 100 mM NaCl. Protein identity was confirmed by peptide mass fingerprinting and predicted molecular weight confirmed by mass spectrometry.

`CNC(=O)c1cc(C(=O)N[C@H]2C[C@@H]2C)cc(C(OC)c2ccnc3[nH]ccc23)n1` (relative stereo) [Example 106, 6-((R*-Methoxy(1H-pyrrolo[2,3-b]pyridin-4-yl)methyl)-N^2 methyl-N^4-((1S,2S)-2-methylcyclopropyl)pyridine-2,4-dicarboxamide] was tested, and the “pIC50 in the BRD4 BD2 assay” value (BRD4 BD2) was 7.6 log10 units and the “fold selective for BRD4 BD2 over BRD4 BD1” value (shortened to “fold selective for BRD4 BD2”) (BRD4 BD2 over BRD4 BD1) was “at least 1000 fold”.

In the case of `CNC(=O)c1cc(C(=O)NC2CC2C)cc(C(C)c2cncc3[nH]ccc23)n1` [Example 49, 6-((S*-1-(1H-Pyrrolo[2,3-c]pyridin-4-yl)ethyl)-N^2-methyl-N^4 ((1S,2S)-2-methylcyclopropyl)pyridine-2,4-dicarboxamide], the IC50 (BRD4 BD2) is reported as 12.6 nM, the “selectivity for BRD4 BD2 over BRD4 BD1” value (BRD4 BD2 over BRD4 BD1) is reported as 2.8 log unit and the “fold selective for BRD4 BD2” value (BRD4 BD2 over BRD4 BD1) is reported as “at least 100 fold”.

For `CNC(=O)c1cc(C(=O)N[C@H]2C[C@@H]2C)cc(Cc2cncc3[nH]ccc23)n1` [Example 46, 6-((1H-Pyrrolo[2,3-c]pyridin-4-yl)methyl)-N^2-methyl-N^4-((1S,2S)-2-methylcyclopropyl)pyridine-2,4-dicarboxamide], the IC50 (BRD4 BD2) was 79.4 nM, the “selectivity for BRD4 BD2 over BRD4 BD1” value (BRD4 BD2 over BRD4 BD1) was 2.8 log unit and the “fold selective for BRD4 BD2” value (BRD4 BD2 over BRD4 BD1) was “at least 100 fold”.

With `CNC(=O)c1cc(C(=O)N[C@H]2C[C@@H]2C)cc(Cc2cccc3c2CCN3)n1` [Example 83, 6-(indolin-4-ylmethyl)-N^2-methyl-N^4-((1S,2S)-2-methylcyclopropyl)pyridine-2,4-dicarboxamide] the IC50 (BRD4 BD2) was 31.6 nM, the “selectivity for BRD4 BD2 over BRD4 BD1” value (BRD4 BD2 over BRD4 BD1) was 2.9 log unit and the “fold selective for BRD4 BD2” value (BRD4 BD2 over BRD4 BD1) was “at least 100 fold”.

With `CNC(=O)c1cc(C(=O)N[C@H]2C[C@@H]2C)cc(Cn2ccccc2=O)n1` [Example 54, N^2-Methyl-N^4-((1S,2S)-2-methylcyclopropyl)-6-((2-oxopyridin-1(2H)-yl)methyl)pyridine-2,4-dicarboxamide] the IC50 (BRD4 BD2) was 1000 to 10000 nM.

For `COc1ccc2c(c1)C(c1ccc(Cl)cc1)=N[C@@H](CC(=O)NCCCCCNC(=O)CCCCCC1(C)/C(=C/C=C/C=C/C3=[N+](CCCCS(=O)(=O)O)c4ccc(S(=O)(=O)O)cc4C3(C)C)N(CCCCS(=O)(=O)[O-])c3ccc(S(=O)(=O)O)cc31)c1nnc(C)n1-2` (stereo partly drawn) [Reference Compound X], the “reduction in Kd (affinity) of double mutant tandem proteins in comparison to wild type tandem BET proteins” value ([1]; double residue (Tyr to Ala) mutant tandem domain proteins) was over 1000 fold, the “reduction of Kd of the interaction between the mutated bromodomain and Reference Compound X” value ([1]; single mutation of Tyrosine to Alanine) was over 1000 fold and the “affinity of single mutated bromodomain tandem proteins versus corresponding non-mutated BET protein” value ([1]; single residue (Tyr to Ala) mutants) was “equi-potent”.

`CNC(=O)c1cc(C(=O)NC2CC2)cc([C@@H](O)c2ccccc2C)n1` (single isomer, unassigned) [Example 116, (S*)-N^4-cyclopropyl-6-(hydroxy(o-tolyl)methyl)-N^2-methylpyridine-2,4-dicarboxamide] gave an IC50 (BRD4 BD2) of 1000 to 10000 nM.

In the case of `CNC(=O)c1cc(C(=O)N[C@H]2C[C@@H]2C)cc(Cc2ccnc3[nH]ccc23)n1` [Example 80, 6-((1H-Pyrrolo[2,3-b]pyridin-4-yl)methyl)-N^2-methyl-N^4-((1S,2S)-2-methylcyclopropyl)pyridine-2,4-dicarboxamide], the IC50 (BRD4 BD2) is reported as 39.8 nM and the “fold selective for BRD4 BD2” value (BRD4 BD2 over BRD4 BD1) is reported as “at least 1000 fold”.
